Assay results from US11352421B2, “Treatment for adverse immune reaction to metal implant debris” (RUSH UNIVERSITY MEDICAL CENTER, priority 2018, dated 2022).
*: point of attachment. Cbz = O=C(OCc1ccccc1)*; CH2F = FC*

Columns and labels:
[1] = system: human peripheral blood mononuclear cells; assay: Metal-LTT of human lymphocytes (PBMCs): proliferation by 3H-thymidine incorporation with inflammasome or IL-17A inhibitors; type: cell-based; conditions: for lymphocyte proliferation in response to Ni in the presence of inhibitor / lymphocyte proliferation to Ni combined with inhibitor compared to media control: metal-reactive individuals' lymphocytes, 6 days; for lymphocyte proliferation in response to Ni in the presence of inhibitor: compared with Ni challenge without inhibitor; for lymphocyte proliferation to Ni combined with inhibitor compared to media control: versus media challenge; for lymphocyte proliferation, mean response to Ni: Ni alone
Experimental: De-identified human peripheral blood mononuclear cells were isolated from 30 mL of peripheral blood using density gradient separation (Ficoll-isopaque, Pharmacia, Piscataway, N.J.). Ficoll gradient separated mononuclear cells are generally comprised of 85-95% lymphocytes with 5-13% monocytes and <0.1% dendritic cells with limited contamination (i.e., <5% erythrocytes and <3% granulocytes). Collected PBMCs (white buffy coat) were washed in sterile 1×PBS and resuspended in RPMI-1640 medium with 10% autologous serum and cultured with either no metal (plain media) as a negative control, PHA as a positive control, or with soluble nickel (NiCl2) or cobalt (CoCl2) at 37° C. and […] for 6 days. At day 5 of cell culture, ^3H-thymidine was added. At day 6, T-cell proliferation was assessed via ^3H-thymidine incorporation that was determined using a beta scintillation counter.
(§1) Isolated human PBMCs were co-incubated in vitro with either MCC950, a NLRP3 inflammasome inhibitor (InvivoGen), Caspase-1 inhibitor (Caspase-1/ICE inhibitor Z-WEHD-FMK) or recombinant human IL-1Ra (R&D Systems. Inc., Minneapolis, Minn.) for metal-LTT assay or cytokine analysis according to manufacturer's protocol and working concentration. Caicedo et al., J. Biomed. Mater. Res. A 93(4):1312-1321 (2010).
(§2) Isolated human PBMCs were co-incubated in vitro with IL-17A monoclonal antibody (eBio64CAP17; ThermoFisher Scientific) for neutralization of IL-17A bioactivity for metal-lymphocyte transformation test assay or cytokine analysis according to the manufacturer's protocol and concentration.

IFN-γ [2] = assay: Sandwich ELISA for human IFN-γ in supernatants of metal-challenged PBMCs; type: cell-based; conditions: metal-reactive individuals' lymphocytes; supernatants harvested on day 6
Experimental: as §1, §2
(§3) Sandwich ELISAs for mouse IL-17A/F and IFN-γ (R&D Systems Inc., Minneapolis, Minn.) were used to detect cytokine production in both non-sensitized and metal-sensitized female mouse spleens and isolated CD4+ T-cells that were harvested 48 h post paw re-challenge to metal allergen (day 14). Supernatants from control and metal-challenged murine cells were collected after 4 days. […] All samples for ELISA were performed in triplicate in 96 well plates and were stored at −80° C. until analysis, following manufacturer's protocol.

IL-17A/F [3] = assay: Sandwich ELISA for human IL-17A/F in supernatants of metal-challenged PBMCs; type: cell-based; conditions: metal-reactive individuals' lymphocytes; supernatants harvested on day 6
Experimental: as §1, §2, §3

IL-17A/F [4] = assay: Sandwich ELISA for mouse IL-17A/F in supernatants of metal-challenged CD4+ T cells; type: cell-based; conditions: CD4+ T cells from metal-sensitized Caspase-1−/− mice
Experimental: (§4) In addition to determination of paw swelling after recall with NiCl2, proliferation in vitro of lymphocytes was measured. Spleens were obtained aseptically 48 h after challenge and splenic effector CD4+ T cells were isolated using negative selection kit following manufacturer's protocol (EasySep Mouse CD4+ T cell isolation kit; 2.5×10^5 cells/per well in 96 well flat bottom plates). Splenic CD4+ T cells were co-incubated with syngeneic mitomycin-C treated naïve splenic (2.5×10^5 cells/per well) antigen-presenting cells (APCs) with or without 0.0001 mM or 0.001 mM of soluble metal ions NiCl2 or CoCl2, and 0.01 mg/mL phytohemagglutinin (PHA) as a positive control, in RPMI 1640 media containing 10% fetal bovine serum (FBS; Hyclone Laboratories, Inc.) at 37° C. and […] for 4 days. Syngeneic naïve spleen APCs were incubated at 5×10^6 cells/mL with 25 μg/mL of mitomycin-C for 30 minutes to inactivate proliferation. At day 3 of cell culture, ^3H-thymidine was added. At day 4, T-cell proliferation was assessed via ^3H-thymidine incorporation that was determined using a beta scintillation counter.
(§5) Sandwich ELISAs for mouse IL-17A/F and IFN-γ (R&D Systems Inc., Minneapolis, Minn.) were used to detect cytokine production in both non-sensitized and metal-sensitized female mouse spleens and isolated CD4+ T-cells that were harvested 48 h post paw re-challenge to metal allergen (day 14). […]

[5] = system: metal-sensitized C57BL/6 mice; assay: In vivo delayed type hypersensitivity (DTH) to orthopedic implant metal(s): paw inflammation by digital caliber; conditions: day 14, no treatment, p<0.0001 vs vehicle group
Experimental: DTH responses comprise two phases: (1) sensitization and (2) effector phase. […] Ashrin et al., J. Immunol. 192(9):4025-4031 (2014); Sato et al., Clin. Exp. Allergy 37(5):743-751 (2007). […] (2) Effector phase to implant metal(s): Re-exposure to the metal allergen leads to DTH reaction during the effector phase. Therefore, on day 12, a 50 μL mixture of either sterile 1×PBS (control group) or NiCl2 (metal-sensitized group) with an equivalent volume of CFA was injected subcutaneously on top of the right paw. DTH was determined 48 h post re-exposure to metal allergen (day 14) by measuring changes in paw inflammation using a digital caliber (blinded assessment) and the induced difference was recorded. Each group consisted of 3-5 mice and experiments were performed at least three independent times.
Anti-mouse IL-1R1: A set of metal-sensitized C57BL/6 female mice received local paw administration on day 12 with 200 μg of anti-mouse IL-1R1 (for local in vivo blocking of IL-1R during the effector phase of metal-DTH responses) (clone JAMA-147; BioLegend, San Diego, Calif.) in concert with NiCl2 and CFA. Rogers et al., Proc. Natl. Acad. Sci. USA 89(3):1011-1015 (1992); Rogers et al., J. Immunol. 153(5):2093-2101 (1994). […]

IFN-γ [6] = assay: Sandwich ELISA for mouse IFN-γ in supernatants of metal-challenged CD4+ T cells; type: cell-based; conditions: CD4+ T cells from metal-sensitized Caspase-1−/− mice
Experimental: as §4, §5

Row | Molecule | lymphocyte proliferation in response to Ni in the presence of inhibitor [1] | lymphocyte proliferation to Ni combined with inhibitor compared to media control [1] | IFN-γ production to metal challenge in the presence of inhibitor (IFN-γ [2]) | IL-17A/F production to metal challenge in the presence of inhibitor (IL-17A/F [3]) | IL-17A/F mean secretion in response to Ni (IL-17A/F [4]) | lymphocyte proliferation, mean response to Ni ([1]; other groups of individuals (FIGS. 9A, 9B, 10A)) | lymphocyte proliferation, mean response to Ni ([1]; subset of individuals tested with anti-IL-17A (n=11)) | mean paw inflammation upon challenge with Ni [5] | IFN-γ mean secretion in response to Ni (IFN-γ [6]) | relative effectiveness in mitigating lymphocyte metal reactivity (comparison among inhibitors) ([1]; comparison of MCC950, Caspase-1 inhibitor, IL-1Ra, anti-IL-17A)
1 | CC(C)(O)c1coc(S(=O)(=O)NC(=O)Nc2c3c(cc4c2CCC4)CCC3)c1 [MCC950, reference compound] | only a weak proliferative response | significant increases in cell proliferation | not affected | significantly suppressed |  |  |  |  |  | 
2 | [Cl][Ni][Cl] [Ni, Nickel (II) chloride] |  |  |  |  | 131.5 pg/mL | approximately 4,000 cpm | 10,600 cpm | 6.195 mm | 956.6 pg/mL | 
3 | Cbz-WEHD-CH2F [Caspase-1 inhibitor, reference compound] | significantly reduced lymphocyte reactivity | significant increases in cell proliferation | significantly suppressed both IL-17 and IFN-γ production | significantly suppressed |  |  |  |  |  | 
4 | IL-1Ra: recombinant human IL-1Ra (R&D Systems), IL-1 receptor antagonist; b178 equates IL-1Ra with ANAKINRA | significantly reduced lymphocyte proliferative responses | non-significantly different compared to media challenge |  | significantly suppressed |  |  |  |  |  | most effective inflammasome based inhibitor
